Test system: KS-483 cells
Test: qPCR gene expression in KS-483 cells after compound stimulation
Assay type: cell-based
Conditions: 3 days stimulation, Indo 5 uM; for BMP-4 gene expression (control = 1) / BMP-7 gene expression (control = 1) / CD36 gene expression (control = 1) / CEBP gene expression (control = 1) / CIDEA gene expression (control = 1) / DKK2 gene expression (control = 1) / FABP-4 gene expression (control = 1) / FGF21 gene expression (control = 1) / LPL gene expression (control = 1) / LRP5 gene expression (control = 1) / O3FAR1 gene expression (control = 1) / PLIN1 gene expression (control = 1) / PPAR-γ gene expression (control = 1) / PRDM16 gene expression (control = 1) / PpargC1α/PGC-1α gene expression (control = 1) / SCD1 gene expression (control = 1) / SLC2A4 gene expression (control = 1) / WNT5a gene expression (control = 1) / WNT6 gene expression (control = 1) / WNT10a gene expression (control = 1) / WNT11 gene expression (control = 1) / Adipoq gene expression (control = 1) / CFD gene expression (control = 1) / Noggin gene expression (control = 1) / UCP-1 gene expression (control = 1): Pentosan 5 ug/ml; for BMP-2 gene expression (control = 1): Pentosan 0.05 ug/ml
Procedure: The genes in KS-483 cells were assessed for up- or downregulation after stimulation with compound. Briefly, KS-483 cells were cultured under standard culturing conditions in α-MEM medium supplemented with glutamax, penicillin/streptomycin and 10% heat-inactivated Foetal Calf Serum (FCS).
For gene-expression analysis cells were seeded at 9210 cells/cm2 in 6-wells culture plates (Costar). At day 4, when cells were confluent, cells were stimulated with compounds in the presence of 5 μg/ml vitamin C. After 72 hours stimulation, cells were washed with PBS and subsequently RNA from the cells was isolated in 1 ml TRIzol (Invitrogen) following a standard TRIzol isolation protocol. RNA concentration and purity was assessed on a Nanodrop 1000 (Thermo Scientific). Single strand cDNA was synthesized from the isolated mRNA using reverse transcriptase (RT). Subsequently, SYBR green real-time PCR, also known as qPCR, was used to quantify differential gene expression of selected genes normalized to the expression of the housekeeping gene beta-2 microglobulin (b2m). […] The qPCR protocol applied was as follows:
15 minutes at 95° C. to activate Taq DNA polymerase, inactivate reverse transcriptase and denaturate the cDNA template.
40 cycles of 15 seconds denaturation at 95° C., 30 seconds annealing at 55° C. and 30 seconds of extension at 72° C.
At the melting point, the two strands of DNA will separate and the fluorescence rapidly decreases. Presence of multiple melting point, pointing at contaminated end-products was verified.
The threshold cycle or CT value (the cycle at which a statistically significant increase in normalized fluorescence intensity is first detected) were determined and relative fold change of genes of interest compared to b2m was determined.
The control has an expression of 1; values higher than 1 imply up-regulation of the gene; values lower than 1 imply down-regulation of genes.

Molecule	BMP-4 gene expression (control = 1) (1 ng c-DNA)	BMP-7 gene expression (control = 1) (1 ng c-DNA)	CD36 gene expression (control = 1) (1 ng c-DNA)	CEBP gene expression (control = 1) (1 ng c-DNA)	CIDEA gene expression (control = 1) (1 ng c-DNA)	DKK2 gene expression (control = 1) (1 ng c-DNA)	FABP-4 gene expression (control = 1) (1 ng c-DNA)	FGF21 gene expression (control = 1) (1 ng c-DNA)	LPL gene expression (control = 1) (1 ng c-DNA)	LRP5 gene expression (control = 1) (1 ng c-DNA)	O3FAR1 gene expression (control = 1) (1 ng c-DNA)	PLIN1 gene expression (control = 1) (1 ng c-DNA)	PPAR-γ gene expression (control = 1) (1 ng c-DNA)	PRDM16 gene expression (control = 1) (1 ng c-DNA)	PpargC1α/PGC-1α gene expression (control = 1) (1 ng c-DNA)	SCD1 gene expression (control = 1) (1 ng c-DNA)	SLC2A4 gene expression (control = 1) (1 ng c-DNA)	WNT5a gene expression (control = 1) (1 ng c-DNA)	WNT6 gene expression (control = 1) (1 ng c-DNA)	WNT10a gene expression (control = 1) (1 ng c-DNA)	further results
COc1ccc2c(c1)c(CC(=O)O)c(C)n2C(=O)c1ccc(Cl)cc1 [Indo, Indomethacin]	0.81	1.62	181.5	1.19	0.95	1.06	162.94	2.33	4.43	1.58	2.26	354.02	0.91	1.58	1.15	1.32	2.09	0.73	0.83	0.92	WNT11 gene expression (control = 1) (1 ng c-DNA): 1.01; BMP-2 gene expression (control = 1) (10 ng c-DNA): 1.96; Adipoq gene expression (control = 1) (10 ng c-DNA): 251.30; CFD gene expression (control = 1) (10 ng c-DNA): 413.23; CIDEA gene expression (control = 1) (10 ng c-DNA): 1.86; Noggin gene expression (control = 1) (10 ng c-DNA): 2.25; O3FAR1 gene expression (control = 1) (10 ng c-DNA): 5.68; UCP-1 gene expression (control = 1) (10 ng c-DNA): 2.18
Pentosan polysulfate	0.77	0.77	2.60	0.63	5.50	0.14	3.83	0.23	2.33	3.27	0.44	17.47	1.55	1.85	2.09	0.85	1.07	0.76	0.16	0.03	WNT11 gene expression (control = 1) (1 ng c-DNA): 0.12; BMP-2 gene expression (control = 1) (10 ng c-DNA): 1.32; Adipoq gene expression (control = 1) (10 ng c-DNA): 32.00; CFD gene expression (control = 1) (10 ng c-DNA): 40.86; CIDEA gene expression (control = 1) (10 ng c-DNA): 9.19; Noggin gene expression (control = 1) (10 ng c-DNA): 3.56; O3FAR1 gene expression (control = 1) (10 ng c-DNA): 1.14; UCP-1 gene expression (control = 1) (10 ng c-DNA): 2.85

Source: patent US10792303B2, “Compositions and methods for inducing beige or brown fat tissue” (Logick Energetics, priority 2015, dated 2020)
